{NH2C12} = amino-(CH2)12 linker attached through a phosphate; {FITC} = fluorescein (FITC) label

In this series the test system is HepG2 cells. Put plainly: Transmembrane transfer of FITC-tagged single-stranded or double-stranded DNA/RNA with X-tremeGENEsiRNA reagent, laser confocal microscopy. It is filed as cell-based. The conditions noted are these: 4 nmol, 6 h, laser confocal microscope, FIG. 5. The method, then:
24 h before transfer, the HepG2 cells in the phase of logarithmic growth were digested with trypsin; a culture medium containing 10% serum was used for adjusting the cell density to 0.5×10^6 cells/mL; and the cells were inoculated again in a cell culture dish of 15 cm and cultured in a culture incubator containing 5% CO2 at 37° C. The cells may be used for experiments when the cell density reaches 60% to 70% 24 h later.
4 nmol of synthesized single-stranded or double-stranded DNA/RNA fragments in different sequences was added to a sterile centrifuge tube (tube A) of 15 mL, respectively, and uniformly mixed with Opti-MEM in a corresponding volume, with a total volume of 2 mL; the X-tremeGENEsiRNA reagent was shaken gently, and 160 μL of X-tremeGENEsiRNA reagent was mixed with 1.84 mL of Opti-MEM in another tube (tube B); and the solution in the tube A was mixed with the solution in the tube B, the mixture was slightly triturated by a pipette and incubated for 20 min at room temperature.
6 mL of RPMI-1640 serum-free culture medium was added to the mixture and mixed uniformly; the primary culture medium in the HepG2 cell culture dish was discarded, and slightly triturated with RPMI-1640 serum-free culture medium once; and then, the mixture was moved into the HepG2-PT cell culture dish, and cultured in a culture incubator containing 5% CO2 at 37° C. 6 h later, the positioning of the DNA/RNA in the cells was observed by a laser confocal microscope.
Consider “5′-NH2—(CH2)12—PO4-A3-3′-FITC [polyA of 38 bp]”, for which the “positioning of the DNA/RNA in the cells (transfer into cells)” value (from here on “positioning of the DNA/RNA in the cells”) was “transferred into cells by X-tremesiRNA, with most of them into the cytoplasm and a few of them into the cell nucleus”.

Take “5′-NH2—(CH2)12—PO4-A5-3′-FITC [polyA of 5 bp]”: the “positioning of the DNA/RNA in the cells” value was “transferred into cells by X-tremesiRNA, with most of them into the cytoplasm and a few of them into the cell nucleus”.

As for “5′-NH2—(CH2)12—PO4-A19-3′-FITC [polyA of 19 bp]”, the “positioning of the DNA/RNA in the cells” value is “transferred into cells by X-tremesiRNA, with most of them into the cytoplasm and a few of them into the cell nucleus”.

Consider “5′-NH2—(CH2)12—PO4-TGGGCTGGCCAAACTGCTG-3′-FITC (DNA, 5' {NH2C12}, 3' {FITC}, backbone and methylation of C not given here)”, for which the “positioning of the DNA/RNA in the cells” value was “transferred into cells by X-tremesiRNA, with most of them into the cytoplasm and a few of them into the cell nucleus”.

For the substance “double-stranded random sequence fragments of 19 bp: duplex of 5′-NH2-(CH2)12-PO4-TGGGCTGGCCAAACTGCTG-3′-FITC with 3′-ACCCGACCGGTTTGACGAC-5′”, the “positioning of the DNA/RNA in the cells” value is “transferred into cells by X-tremesiRNA, with most of them into the cytoplasm and a few of them into the cell nucleus”.

Values taken from patent US20160153002A1, “METHOD FOR CELL MEMBRANE PERMEATION FOR COMPOUND” (HitGen LTD., priority 2013, published 2016).
